Laboratory results reported in patent publication US20240360151A1 (SANOFI, priority 2023, published 2024).

Tests used:
[1] = tested on: NF-kB pathway (TNF-α secretion by THP-1 cells); assay: TNF-α secretion assay in LPS-stimulated THP-1 cells, Lumit immunoassay; type: cell-based, human; settings: Homo sapiens, THP-1, 3 h, monocytic THP-1 cells, LPS 10 ng/mL, relative IC50, 10 concentrations, geometric mean
In short: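 THP-1 monocytes in RPMI with 5% FBS were treated with compound, then stimulated with 10 ng/mL LPS for 3 h. Secreted TNF-α was measured in-plate by Lumit immunoassay. Relative IC50 came from 10-concentration curves fitted with a 4-parameter logistic model, reported as geometric mean.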

[2] = target: T1, NLRP3 inflammasome (Homo sapiens, UniProt Q96P20); assay: IL-1β secretion assay (NLRP3 IC50) in LPS-primed, nigericin-activated THP-1 cells, HTRF; type: cell-based; settings: monocytic THP-1 cells; LPS 10 ng/mL 3 h priming, then compound + nigericin 10 μM 2 h; relative IC50, 10 concentrations, geometric mean
T1 construct: endogenous in cells; host or cells: THP-1 monocytic cells
T1 sequence (Q96P20 whole entry): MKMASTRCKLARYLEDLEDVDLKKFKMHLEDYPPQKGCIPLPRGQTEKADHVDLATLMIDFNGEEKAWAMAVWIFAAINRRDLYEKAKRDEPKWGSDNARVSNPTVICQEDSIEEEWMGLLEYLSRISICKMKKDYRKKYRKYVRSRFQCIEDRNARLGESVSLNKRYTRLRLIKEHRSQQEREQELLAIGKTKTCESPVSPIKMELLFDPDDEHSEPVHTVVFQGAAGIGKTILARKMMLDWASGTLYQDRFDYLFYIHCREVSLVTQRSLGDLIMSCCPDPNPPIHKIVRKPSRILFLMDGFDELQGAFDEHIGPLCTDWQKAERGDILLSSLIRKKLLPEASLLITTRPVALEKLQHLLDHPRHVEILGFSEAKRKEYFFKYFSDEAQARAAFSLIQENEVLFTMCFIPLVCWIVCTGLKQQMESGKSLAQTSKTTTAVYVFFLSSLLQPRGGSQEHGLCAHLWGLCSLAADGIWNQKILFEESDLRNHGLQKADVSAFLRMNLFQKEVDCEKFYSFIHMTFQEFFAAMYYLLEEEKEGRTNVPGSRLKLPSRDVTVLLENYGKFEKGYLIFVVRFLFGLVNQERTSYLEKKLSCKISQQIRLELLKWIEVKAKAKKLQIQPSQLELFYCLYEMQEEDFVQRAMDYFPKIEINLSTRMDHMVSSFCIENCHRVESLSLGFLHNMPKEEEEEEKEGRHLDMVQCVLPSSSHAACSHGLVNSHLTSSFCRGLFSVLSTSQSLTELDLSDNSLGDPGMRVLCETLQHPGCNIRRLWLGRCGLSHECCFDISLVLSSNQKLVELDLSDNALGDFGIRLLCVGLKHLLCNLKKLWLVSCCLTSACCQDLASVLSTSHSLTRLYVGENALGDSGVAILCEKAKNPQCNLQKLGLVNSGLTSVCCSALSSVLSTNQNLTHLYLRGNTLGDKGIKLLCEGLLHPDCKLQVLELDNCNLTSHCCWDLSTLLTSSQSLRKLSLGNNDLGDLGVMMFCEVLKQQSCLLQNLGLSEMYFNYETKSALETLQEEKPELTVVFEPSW
In short: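 THP-1 cells primed with LPS 10 ng/mL for 3 h at 37° C., then compound (10-point 1:3 dilution, 0.1% DMSO) added with 10 μM nigericin for 2 h. Supernatant IL-1β measured by HTRF; relative IC50 from a 4-parameter logistic fit, reported as geometric mean.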

| Compound | IC50 [1] [nM] | IC50 [2] [nM] |
| --- | --- | --- |
| Cc1cc(Cl)cc(O)c1-c1cc(C(F)F)c(N2CCO[C@H](CO)C2)nn1 [Example 171, 5-chloro-2-[5-(difluoromethyl)-6-[(2S)-2-(hydroxymethyl)morpholin-4-yl]pyridazin-3-yl]-3-methyl-phenol] | > 10000 | 7 |
| Cc1cc(C(F)(F)F)cc(O)c1-c1ccc(N2C[C@@H](CO)O[C@@H](CO)C2)nn1 [Example 178, 2-[6-[(2R,6S)-2,6-bis(hydroxymethyl)morpholin-4-yl]pyridazin-3-yl]-3-methyl-5-(trifluoromethyl)phenol] | > 10000 | 7 |
| Cc1cc(Cl)cc(O)c1-c1nnc(N2CCO[C@H](CO)C2)cc1CO [Example 188, 5-chloro-2-[4-(hydroxymethyl)-6-[(2S)-2-(hydroxymethyl)morpholin-4-yl]pyridazin-3-yl]-3-methyl-phenol] | > 10000 | 414 |
| Cc1cc(Cl)cc(O)c1-c1cc(CO)c(N2CCO[C@H](CO)C2)nn1 [Example 189, 5-chloro-2-[5-(hydroxymethyl)-6-[(2S)-2-(hydroxymethyl)morpholin-4-yl]pyridazin-3-yl]-3-methyl-phenol] | > 10000 | 12 |
| Cc1cc(Cl)cc(O)c1-c1ccc(N2CCOc3cc(O)ccc32)nn1 [Example 193, 4-[6-(4-chloro-2-hydroxy-6-methyl-phenyl)pyridazin-3-yl]-2,3-dihydro-1,4-benzoxazin-7-ol] | 9830 | 534 |
| Cc1cc(C(F)(F)F)cc(O)c1-c1cc(C(F)F)c(N2CCO[C@H](CO)C2)nn1 [Example 194, 2-[5-(difluoromethyl)-6-[(2S)-2-(hydroxymethyl)morpholin-4-yl]pyridazin-3-yl]-3-methyl-5-(trifluoromethyl)phenol] | > 10000 | 4 |
| Cc1cc(C)c(-c2ccc(N3CCNC4(CCOC4)C3)nn2)c(O)c1 (centres unmarked) [Example 196, 3,5-dimethyl-2-[6-(2-oxa-6,9-diazaspiro[4.5]decan-9-yl)pyridazin-3-yl]phenol] | > 10000 | 452 |
| Cc1cc(C(F)(F)F)cc(O)c1-c1ccc(N2C[C@@H](CO)O[C@H](CO)C2)nn1 [Example 199, 2-[6-[(2S,6S)-2,6-bis(hydroxymethyl)morpholin-4-yl]pyridazin-3-yl]-3-methyl-5-(trifluoromethyl)phenol] | > 10000 | 4 |
| Cc1cc(C(F)(F)F)cc(O)c1-c1ccc(N2C[C@H](CO)O[C@@H](CO)C2)nn1 [Example 200, 2-[6-[(2R,6R)-2,6-bis(hydroxymethyl)morpholin-4-yl]pyridazin-3-yl]-3-methyl-5-(trifluoromethyl)phenol] | > 10000 | 23 |
| Oc1cc(Cl)cc(Cl)c1-c1ccc(N2CCSCC2)nn1 [Example 203, 3,5-dichloro-2-(6-thiomorpholinopyridazin-3-yl)phenol] | 9990 | 332 |
| CC(=O)NC[C@@H]1CCCN(c2ccc(-c3c(C)cc(Cl)cc3O)nn2)C1 [Example 211, N-[[(3S)-1-[6-(4-chloro-2-hydroxy-6-methyl-phenyl)pyridazin-3-yl]-3-piperidyl]methyl]acetamide] | > 10000 | 34 |
| CC(=O)NC[C@H]1CCCN(c2ccc(-c3c(C)cc(Cl)cc3O)nn2)C1 [Example 212, N-[[(3R)-1-[6-(4-chloro-2-hydroxy-6-methyl-phenyl)pyridazin-3-yl]-3-piperidyl]methyl]acetamide] | > 10000 | 39 |
| Cc1cc(C)c(-c2ccc(N3CCCc4ccc(O)cc43)nn2)c(O)c1 [Example 217, 1-[6-(2-hydroxy-4,6-dimethyl-phenyl)pyridazin-3-yl]-3,4-dihydro-2H-quinolin-7-ol] | > 10000 | 127 |
| Cc1cc(C)c(-c2ccc(N3CCCc4cc(O)ccc43)nn2)c(O)c1 [Example 230, 1-[6-(2-hydroxy-4,6-dimethyl-phenyl)pyridazin-3-yl]-3,4-dihydro-2H-quinolin-6-ol] | 9140 | 556 |
| Cc1cc(C)c(-c2ccc(N3CCCc4cccc(O)c43)nn2)c(O)c1 [Example 231, 1-[6-(2-hydroxy-4,6-dimethyl-phenyl)pyridazin-3-yl]-3,4-dihydro-2H-quinolin-8-ol] | > 10000 | 219 |
| Cc1cc(C)c(-c2ccc(N3CCCc4c(O)cccc43)nn2)c(O)c1 [Example 232, 1-[6-(2-hydroxy-4,6-dimethyl-phenyl)pyridazin-3-yl]-3,4-dihydro-2H-quinolin-5-ol] | 7630 | 502 |
| Cc1cc(C)c(-c2ccc(N3CC(CO)CCC3=O)nn2)c(O)c1 (centres unmarked) [Example 235, 1-[6-(2-hydroxy-4,6-dimethyl-phenyl)pyridazin-3-yl]-5-(hydroxymethyl) piperidin-2-one] | 7130 | 70 |
| Cc1cc(C)c(-c2ccc(N3CCc4cc(O)ccc43)nn2)c(O)c1 [Example 236, 1-[6-(2-hydroxy-4,6-dimethyl-phenyl)pyridazin-3-yl]indolin-5-ol] | 9650 | 551 |
| O=C1NCCCN1c1ccc(-c2c(O)cc(Cl)cc2Cl)nn1 [Example 239, 1-[6-(2,4-dichloro-6-hydroxy-phenyl)pyridazin-3-yl]hexahydropyrimidin-2-one] | > 10000 | 200 |
| Cc1cc(C)c(-c2ccc(N3CCc4c(O)cccc43)nn2)c(O)c1 [Example 240, 1-[6-(2-hydroxy-4,6-dimethyl-phenyl)pyridazin-3-yl]indolin-4-ol] | > 10000 | 421 |
| Cc1cc(C)c(-c2ccc(N3CCc4c(CO)cccc43)nn2)c(O)c1 [Example 241, 2-[6-[4-(hydroxymethyl)indolin-1-yl]pyridazin-3-yl]-3,5-dimethyl-phenol] | > 10000 | 250 |

Other lines, results leading:

| IC50 [1] [nM] | IC50 [2] [nM] | Compound |
| --- | --- | --- |
| > 10000 | 36 | Cc1cc(O)c(-c2ccc(N3CCO[C@H](CO)C3)nn2)c(Cl)c1 [Example 172, 3-chloro-2-[6-[(2S)-2-(hydroxymethyl)morpholin-4-yl]pyridazin-3-yl]-5-methyl-phenol] |
| > 10000 | 40 | Cc1cc(C)c(-c2ccc(N3C[C@@H](CO)O[C@@H](CO)C3)nn2)c(O)c1 [Example 173, 2-[6-[(2R,6S)-2,6-bis(hydroxymethyl)morpholin-4-yl]pyridazin-3-yl]-3,5-dimethyl-phenol] |
| > 10000 | 170 | Cc1cc(C)c(-c2ccc(N3CCOC(CF)C3)nn2)c(O)c1 (centres unmarked) [Example 174, 2-[6-[2-(fluoromethyl)morpholin-4-yl]pyridazin-3-yl]-3,5-dimethyl-phenol] |
| 7380 | 91 | Cc1cc(O)c(-c2nnc(N3CCO[C@H](CO)C3)cc2C)c(Cl)c1 [Example 177, 3-chloro-2-[6-[(2S)-2-(hydroxymethyl)morpholin-4-yl]-4-methyl-pyridazin-3-yl]-5-methyl-phenol] |
| > 10000 | 66 | Cc1cc(C)c(-c2cc(CO)c(N3CCO[C@H](CO)C3)nn2)c(O)c1 [Example 187, 2-[5-(hydroxymethyl)-6-[(2S)-2-(hydroxymethyl)morpholin-4-yl]pyridazin-3-yl]-3,5-dimethyl-phenol] |
| > 10000 | 11 | [2H]C([2H])(O)[C@@H]1CN(c2ccc(-c3c(C)cc(C(F)(F)F)cc3O)nn2)CCO1 [Example 192, 2-[6-[(2S)-2-[dideuterio(hydroxy)methyl]morpholin-4-yl]pyridazin-3-yl]-3-methyl-5-(trifluoromethyl)phenol] |
| > 10000 | 16 | Cc1cc(C)c(-c2ccc(N3C[C@@H](CO)O[C@H](CO)C3)nn2)c(O)c1 [Example 198, 2-[6-[(2S,6S)-2,6-bis(hydroxymethyl)morpholin-4-yl]pyridazin-3-yl]-3,5-dimethyl-phenol] |
| > 10000 | 76 | Cc1cc(C)c(-c2ccc(N3C[C@H](CO)O[C@@H](CO)C3)nn2)c(O)c1 [Example 201, 2-[6-[(2R,6R)-2,6-bis(hydroxymethyl)morpholin-4-yl]pyridazin-3-yl]-3,5-dimethyl-phenol] |
| > 10000 | 54 | Cc1cc(C2CC2)cc(O)c1-c1ccc(N2CCO[C@H](CO)C2)nn1 [Example 204, 5-cyclopropyl-2-[6-[(2S)-2-(hydroxymethyl)morpholin-4-yl]pyridazin-3-yl]-3-methyl-phenol] |
| > 10000 | 325 | Cc1cc(C)c(-c2ccc(N3C[C@H]4COC[C@H]4C3)nn2)c(O)c1 [Example 206, 2-[6-[(3aS,6aR)-1,3,3a,4,6,6a-hexahydrofuro[3,4-c]pyrrol-5-yl]pyridazin-3-yl]-3,5-dimethyl-phenol] |
| > 10000 | 128 | CC(=O)NC[C@@H]1CN(c2ccc(-c3c(C)cc(C(F)(F)F)cc3O)nn2)CCO1 [Example 216, N-[[(2R)-4-[6-[2-hydroxy-6-methyl-4-(trifluoromethyl)phenyl]pyridazin-3-yl]morpholin-2-yl]methyl]acetamide] |
| > 10000 | 103 | Cc1cc(C)c(-c2ccc(N3CCO[C@H](CF)C3)nn2)c(O)c1 [Example 219, 2-[6-[(2S)-2-(fluoromethyl)morpholin-4-yl]pyridazin-3-yl]-3,5-dimethyl-phenol] |
| > 10000 | 108 | Cc1cc(C)c(-c2ccc(N3CCO[C@@H](CF)C3)nn2)c(O)c1 [Example 220, 2-[6-[(2R)-2-(fluoromethyl)morpholin-4-yl]pyridazin-3-yl]-3,5-dimethyl-phenol] |
